# In US9018224B2, “Substituted cyclopropyl compounds useful as GPR119 agonists” (Merck Sharp & Dohme Corp., priority 2011, dated 2015):
# Biological target: T1, human GPR119 (Homo sapiens, UniProt Q8TDV5)
# T1 sequence (Q8TDV5 1-308 limits assumed): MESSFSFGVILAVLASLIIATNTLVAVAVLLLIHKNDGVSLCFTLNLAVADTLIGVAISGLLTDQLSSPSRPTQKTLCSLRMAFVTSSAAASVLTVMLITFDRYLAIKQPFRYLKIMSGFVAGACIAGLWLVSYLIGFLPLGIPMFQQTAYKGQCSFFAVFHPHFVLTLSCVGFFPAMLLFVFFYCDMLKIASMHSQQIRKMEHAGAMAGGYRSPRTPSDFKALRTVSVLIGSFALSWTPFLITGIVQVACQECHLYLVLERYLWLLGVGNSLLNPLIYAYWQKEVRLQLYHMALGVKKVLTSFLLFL
# Test: Measurement of GPR119 signaling by cAMP (LANCE cAMP kit or HTRF) in HEK293 cells transfected with human GPR119
# Type: cell-based
# Settings: agonist cAMP response in HEK293 cells stably transfected with human GPR119; patent does not say which of the two cAMP formats (LANCE or HTRF)
# Procedure, shortened: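 LANCE TR-FRET cAMP readout; detection with Eu-SA/biotin-cAMP tracer for 3 h, signal converted to cAMP via standard curve, duplicates, 4-parameter fit vs DMSO basal and internal agonist maximum.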
row,EC50,Compound
1,4.3 nM,NC(=O)C1CCN1C(=O)Cc1ccc(OCC[C@@H]2C[C@@H]2C2CCN(c3ncc(Cl)cn3)CC2)cc1F (some centres unmarked) [Example 106]
2,6.5 nM,CC1(NC(=O)Cc2ccc(OCC[C@@H]3C[C@@H]3C3CCN(c4ncc(Cl)cn4)CC3)cc2F)CCCC1 [Example 94]
3,1.6 nM,COCc1cnc(N2CCC([C@H]3C[C@H]3CCOc3ccc(CC(=O)N4CCC[C@@H]4C)c(F)c3)CC2)nc1 [Example 49]
4,0.99 nM,COCc1cnc(N2CCC([C@H]3C[C@H]3CCOc3ccc(CC(=O)N4CCCCC4)c(F)c3)CC2)nc1 [Example 48]
5,0.42 nM,COc1cnc(N2CCC([C@H]3C[C@H]3CCOc3ccc(CC(=O)N4CC(F)(F)C4)c(F)c3)CC2)nc1 [Example 40]
6,1.4 nM,COc1cnc(N2CCC([C@H]3C[C@H]3CCOc3ccc(CC(=O)N4CCOCC4)c(F)c3)CC2)nc1 [Example 38]
7,2 nM,O=C(Cc1ccc(OCC[C@@H]2C[C@@H]2C2CCN(c3ncc(Cl)cn3)CC2)cc1F)N1CCc2[nH]ncc2C1 [Example 139]
8,1.1 nM,CC1(C)CN(C(=O)Cc2ccc(OCC[C@@H]3C[C@@H]3C3CCN(c4ncc(Cl)cn4)CC3)cc2F)Cc2nnc(C(F)(F)F)n21 [Example 179]
9,7.7 nM,"COCc1cnc(N2CCC([C@H]3C[C@H]3CCOc3ccc(CC(=O)N4CC(O)C4)cc3)CC2)nc1 [Example 7, 1-(3-hydroxyazetidin-1-yl)-2-(4-{2-[(1S,2R)-2-{1-[5-(methoxymethyl)pyrimidin-2-yl]piperidin-4-yl}cyclopropyl]ethoxy}phenyl)ethanone]"
10,1.3 nM,CN(C(=O)Cc1ccc(OCC[C@@H]2C[C@@H]2C2CCN(c3ncc(Cl)cn3)CC2)cc1F)C1CCOCC1 [Example 155]
11,4 nM,CC1(NC(=O)Cc2ccc(OCC[C@@H]3C[C@@H]3C3CCN(c4ncc(Cl)cn4)CC3)cc2F)CCC1 [Example 92]
12,3.1 nM,O=C(Cc1ccc(OCC[C@@H]2C[C@@H]2C2CCN(c3ncc(Cl)cn3)CC2)cc1F)N1CCc2c(C3CC3)n[nH]c2C1 [Example 142]
13,0.73 nM,Cc1nc2c(o1)CCN(C(=O)Cc1ccc(OCC[C@@H]3C[C@@H]3C3CCN(c4ncc(Cl)cn4)CC3)cc1F)C2 [Example 136]
14,2.5 nM,CNC(=O)Cc1c(F)cc(OCC[C@@H]2C[C@@H]2C2CCN(c3ncc(COC)cn3)CC2)cc1F [Example 227]
15,1.7 nM,O=C(Cc1ccc(OCC[C@@H]2C[C@@H]2C2CCN(c3ncc(Cl)cn3)CC2)cc1F)NC1CC1(F)F (some centres unmarked) [Example 88]
16,0.14 nM,"CCOc1cnc(N2CCC([C@H]3C[C@H]3CCOc3cc(F)c(CC(=O)N4CCC4)c(F)c3)CC2)nc1 [Example 229, 1-(azetidin-1-yl)-2-[4-(2-{(1S,2R)-2-[1-(5-ethoxypyrimidin-2-yl)piperidin-4-yl]cyclopropyl}ethoxy)-2,6-difluorophenyl]ethanone]"
17,1.1 nM,O=C(Cc1ccc(OCC[C@@H]2C[C@@H]2C2CCN(c3ncc(Cl)cn3)CC2)cc1F)N1CCc2cccnc2C1 [Example 130]
18,3.6 nM,COCc1cnc(N2CCC([C@H]3C[C@H]3CCOc3ccc(CC(=O)N4CC(C)(O)C4)c(F)c3)CC2)nc1 [Example 44]
19,0.95 nM,CC1CN(C(=O)Cc2ccc(OCC[C@@H]3C[C@@H]3C3CCN(c4ncc(Cl)cn4)CC3)cc2F)C1 [Example 64]
20,2.1 nM,O=C(Cc1ccc(OCC[C@@H]2C[C@@H]2C2CCN(c3ncc(Cl)cn3)CC2)cc1F)N1CCc2[nH]c(C(F)(F)F)nc2C1 [Example 192]
21,2.7 nM,C[C@H]1CCCN1C(=O)Cc1ccc(OCC[C@@H]2C[C@@H]2C2CCN(c3ncc(Cl)cn3)CC2)cc1F [Example 73]
22,1.8 nM,CCC(C)NC(=O)Cc1ccc(OCC[C@@H]2C[C@@H]2C2CCN(c3ncc(Cl)cn3)CC2)cc1F (some centres unmarked) [Example 100]
23,2.3 nM,"COCc1cnc(N2CCC([C@H]3C[C@H]3CCOc3ccc(CC(=O)N(C)C)c(Cl)c3)CC2)nc1 [Example 28, 2-(2-chloro-4-{2-[(1S,2R)-2-{1-[5-(methoxymethyl)pyrimidin-2-yl]piperidin-4-yl}cyclopropyl]ethoxy}phenyl)-N,N-dimethylacetamide]"
24,0.14 nM,COCc1cnc(N2CCC([C@H]3C[C@H]3CCOc3cc(F)c(CC(=O)N4CC(F)C4)c(F)c3)CC2)nc1 [Example 220]
25,0.8 nM,O=C(Cc1ccc(OCC[C@@H]2C[C@@H]2C2CCN(c3ncc(Cl)cn3)CC2)cc1F)N1CCC(F)(F)CC1 [Example 86]
26,3.7 nM,CC1CCC(N(C)C(=O)Cc2ccc(OCC[C@@H]3C[C@@H]3C3CCN(c4ncc(Cl)cn4)CC3)cc2F)CC1 (some centres unmarked) [Example 161]

row,EC50,Compound
1,1.5 nM,COCc1cnc(N2CCC([C@H]3C[C@H]3CCOc3ccc(CC(=O)N4CC(C)(O)C4)c(Cl)c3)CC2)nc1 [Example 31]
2,0.26 nM,CCOc1cnc(N2CCC([C@H]3C[C@H]3CCOc3cc(F)c(CC(=O)N(C)C)c(F)c3)CC2)nc1 [Example 234]
3,7.1 nM,"COc1cc(OCC[C@@H]2C[C@@H]2C2CCN(c3ncc(Cl)cn3)CC2)ccc1CC(=O)N1CCC1 [Example 26, 1-(azetidin-1-yl)-2-[4-(2-{(1S,2R)-2-[1-(5-chloropyrimidin-2-yl)piperidin-4-yl]cyclopropyl}ethoxy)-2-methoxyphenyl]ethanone]"
4,0.13 nM,CCOc1cnc(N2CCC([C@H]3C[C@H]3CCOc3cc(F)c(CC(=O)N4CC(F)(F)C4)c(F)c3)CC2)nc1 [Example 231]
5,1 nM,COCc1cnc(N2CCC([C@H]3C[C@H]3CCOc3ccc(CC(=O)N4C[C@H](F)[C@@H](F)C4)c(F)c3)CC2)nc1 [Example 50]
6,0.23 nM,COc1cnc(N2CCC([C@H]3C[C@H]3CCOc3cc(F)c(CC(=O)N(C)C)c(F)c3)CC2)nc1 [Example 213]
7,0.49 nM,CCOCc1cnc(N2CCC([C@H]3C[C@H]3CCOc3ccc(CC(=O)N4CC(F)C4)c(F)c3)CC2)nc1 [Example 201]
8,0.61 nM,O=C(Cc1ccc(OCC[C@@H]2C[C@@H]2C2CCN(c3ncc(Cl)cn3)CC2)cc1F)N1CCCC1 [Example 85]
9,0.98 nM,COCc1cnc(N2CCC([C@H]3C[C@H]3CCOc3ccc(CC(=O)N4CC5CC5C4)c(F)c3)CC2)nc1 (some centres unmarked) [Example 51]
10,10.3 nM,CC(C)CCN(C)C(=O)Cc1ccc(OCC[C@@H]2C[C@@H]2C2CCN(c3ncc(Cl)cn3)CC2)cc1F [Example 109]
11,3.2 nM,CCc1cnc(N2CCC([C@H]3C[C@H]3CCOc3ccc(CC(=O)N4CCC4)c(OC)c3)CC2)nc1 [Example 27]
12,1.7 nM,CN(CCO)C(=O)Cc1ccc(OCC[C@@H]2C[C@@H]2C2CCN(c3ncc(Cl)cn3)CC2)cc1F [Example 170]
13,1.1 nM,O=C(Cc1ccc(OCC[C@@H]2C[C@@H]2C2CCN(c3ncc(Cl)cn3)CC2)cc1F)N1CCn2ccnc2C1 [Example 149]
14,6.3 nM,Cn1ccc2c1CCN(C(=O)Cc1ccc(OCC[C@@H]3C[C@@H]3C3CCN(c4ncc(Cl)cn4)CC3)cc1F)C2 [Example 145]
15,0.91 nM,O=C(Cc1ccc(OCC[C@@H]2C[C@@H]2C2CCN(c3ncc(Cl)cn3)CC2)cc1F)N1CCn2c(nnc2C(F)(F)F)C1 [Example 133]
16,0.35 nM,COCc1cnc(N2CCC([C@H]3C[C@H]3CCOc3cc(F)c(CC(=O)N4CC(OC)C4)c(F)c3)CC2)nc1 [Example 225]
17,4.1 nM,"Fc1cc(OCC[C@@H]2C[C@@H]2C2CCN(c3ncc(Cl)cn3)CC2)ccc1Cc1nnco1 [Example 245, 5-chloro-2-{4-[(1R,2S)-2-(2-{3-fluoro-4-[(1,3,4-oxadizol-2-yl)methyl]phenoxy}ethyl)cyclopropyl]piperidin-1-yl}pyrimidine]"
18,0.83 nM,COCc1cnc(N2CCC([C@H]3C[C@H]3CCOc3ccc(CC(=O)N4CCC4)c(Cl)c3)CC2)nc1 [Example 22]
19,0.63 nM,CN(C)C(=O)Cc1ccc(OCC[C@@H]2C[C@@H]2C2CCN(c3ncc(Cl)cn3)CC2)cc1F [Example 81]
20,9.7 nM,CC[C@@H](CO)NC(=O)Cc1ccc(OCC[C@@H]2C[C@@H]2C2CCN(c3ncc(Cl)cn3)CC2)cc1F [Example 103]
21,3.7 nM,COCc1cnc(N2CCC([C@H]3C[C@H]3CCOc3ccc(CC(=O)N4CCC(O)CC4)c(F)c3)CC2)nc1 [Example 56]
22,3.6 nM,O=C(Cc1ccc(OCC[C@@H]2C[C@@H]2C2CCN(c3ncc(Cl)cn3)CC2)cc1F)N1CCCc2cnccc21 [Example 194]
23,1.7 nM,COc1cnc(N2CCC([C@H]3C[C@H]3CCOc3ccc(CC(=O)N(C)C)c(F)c3)CC2)nc1 [Example 36]
24,5.2 nM,COCc1cnc(N2CCC([C@H]3C[C@H]3CCOc3ccc(CC(=O)N4CC(C)(C)C4)cc3)CC2)nc1 [Example 13]
25,0.48 nM,COc1cnc(N2CCC([C@H]3C[C@H]3CCOc3ccc(CC(=O)N4CC(F)C4)c(F)c3)CC2)nc1 [Example 39]
26,1.3 nM,CN(C(=O)Cc1ccc(OCC[C@@H]2C[C@@H]2C2CCN(c3ncc(Cl)cn3)CC2)cc1F)C1CCS(=O)(=O)C1 (some centres unmarked) [Example 162]

row,Compound,EC50
1,O=C(Cc1ccc(OCC[C@@H]2C[C@@H]2C2CCN(c3ncc(Cl)cn3)CC2)cc1F)N1CCCCC1 [Example 84],1.5 nM
